According to patent US20050042701A1, “Anti-petasin antibodies, methods for the production thereof and their use” (priority 1998, published 2005):
Like-named read-outs stand apart in the source and are kept apart here.

Test: 1st phase clinical test: pharmacokinetics of petasin in serum after single oral administration of tablets containing butterbur extract (open crossover; enzyme immunoassay)
Type: in vivo, human (clinically healthy men)
Details: for AUCRest: single oral, mean ± SD; for Petasin serum concentration Mean / concentration at 0 h: 0 h p.a.; for concentration at 0 h / concentration at 0.25 h / concentration at 0.5 h / concentration at 0.75 h / concentration at 1 h / concentration at 1.17 h / concentration at 1.5 h / concentration at 1.833 h / concentration at 2.167 h / concentration at 2.5 h / concentration at 3 h / concentration at 4 h / concentration at 5 h / concentration at 6 h / concentration at 8 h / concentration at 12 h / concentration at 24 h: male, human, serum, oral; for concentration at 0.25 h: 0.25 h p.a.; for concentration at 0.5 h: 0.5 h p.a.; for concentration at 0.75 h: 0.75 h p.a.; for concentration at 1 h: 1 h p.a.; for concentration at 1.17 h: 1.17 h p.a.; for concentration at 1.5 h: 1.5 h p.a.; for concentration at 1.833 h: 1.833 h p.a.; for concentration at 2.167 h: 2.167 h p.a.; for concentration at 2.5 h: 2.5 h p.a.; for concentration at 4 h: 4 h p.a.; for concentration at 5 h: 5 h p.a.; for concentration at 6 h: 6 h p.a.; for concentration at 8 h: 8 h p.a.; for concentration at 12 h: 12 h p.a.; for concentration at 24 h: 24 h p.a.
Description: Petasin ovalbumin is adsorptively bound to polystyrene microtitration plates in a concentration of […] in 0.1 M carbonate buffer, pH=9.5, (100 μl/well) for 16 hours at 4° C. and thereupon sucked off. After washing it two times with 300 μl/well washing buffer (PBS, 0.1% Tween 20) it is blocked for 2 hours at room temperature with 150 μl/well blocking solution (0.6% gelatine, 0.02% […] in PBS) and subsequently washed three times with washing buffer.
50 μl of the serum sample to be tested or the respective standard (1:4 dilution in a sample buffer (PBS, 1% BSA, 0.1% Tween 20, 0.01% thiomersal) and 50 μL of an optimized anti-serum dilution in a sample buffer are simultaneously incubated with shaking for 1 hour at room temperature. Subsequently, the microtitration plate is washed three times with 300 μl/well of washing buffer and incubated for 30 min. at room temperature with 100 μl of anti-rabbit immunoglobulin peroxidase conjugate, diluted in sample buffer, and once more washed as above. Thereupon, it is incubated for 10 min. with 100 μl of a substrate solution ready for use (3.3′, 5.5′-tetramethyl benzidine) per well and the reaction is stopped by adding 100 μl/well of 0.5 M sulfuric acid. The evaluation is carried out at 450 nm in a microtitration plate reader.
In a 1st phase of the clinical test for determining the pharmacokinetic parameters of tablets containing butterbur extract was a single oral administrations of 2 or 4 tablets to 24 clinically healthy men at the age between 18 and 40 years.
The open, crossover test was chosen as method, single administration of each dose in a randomized order with an interval of at least 7 days between the administrations.
Model-independent pharmacokinetic parameters for petasin Statistical methods:
ANOVA, ANOVAlog, Wilcoxon-Mann-Whitney test, Wilcoxon-sign order test

[1] = 2 tablets, after administering 2 tablets, read-out: Petasin serum concentration Max.
[2] = 2 tablets, after administering 2 tablets, read-out: Petasin serum concentration Mean
[3] = 2 tablets, after administering 2 tablets, read-out: Petasin serum concentration Min.
[4] = 2 tablets, after administering 2 tablets, read-out: Petasin serum concentration Median

AUCRest (2 tablets): 18.3 ± 7.9% | Dose dependence of Cmax and AUC (2 versus 4 tablets): nearly proportional to the dose | Medium maximum petasin concentration (Cmax) after double the dose (4 tablets versus 2 tablets): nearly doubled | Medium time of reaching the maximum serum level (tmax) after double the dose (4 tablets versus 2 tablets): remains constant | AUCRest (4 tablets): 10.8 ± 4.9% | Petasin serum concentration Mean (after administering 4 tablets): <1 ng/mL | Petasin serum concentration Mean (after administering 4 tablets, listed as Petasin): 0.0 ng/mL | Petasin serum concentration Max. (after administering 4 tablets, 3 h p.a.): 49.0 ng/mL | concentration at 0 h [1]: 0 ng/mL | concentration at 0 h [2]: 0 ng/mL | concentration at 0 h [3]: 0 ng/mL | concentration at 0.25 h [1]: 5.5 ng/mL | concentration at 0.25 h [2]: 2.8 ng/mL | concentration at 0.25 h [4]: 2.2 ng/mL | concentration at 0.25 h [3]: 1.1 ng/mL | concentration at 0.5 h [1]: 23.3 ng/mL | concentration at 0.5 h [2]: 7.6 ng/mL | concentration at 0.5 h [4]: 5.9 ng/mL | concentration at 0.5 h [3]: 1.5 ng/mL | concentration at 0.75 h [1]: 23.8 ng/mL | concentration at 0.75 h [2]: 11.9 ng/mL | concentration at 0.75 h [4]: 11 ng/mL | concentration at 0.75 h [3]: 4 ng/mL | concentration at 1 h [1]: 29.3 ng/mL | concentration at 1 h [2]: 15.6 ng/mL | concentration at 1 h [4]: 14.7 ng/mL | concentration at 1 h [3]: 4 ng/mL | concentration at 1.17 h [1]: 62.9 ng/mL | concentration at 1.17 h [2]: 21 ng/mL | concentration at 1.17 h [4]: 15.3 ng/mL | concentration at 1.17 h [3]: 5.6 ng/mL | concentration at 1.5 h [1]: 47.3 ng/mL | concentration at 1.5 h [2]: 19.3 ng/mL | concentration at 1.5 h [4]: 16.1 ng/mL | concentration at 1.5 h [3]: 5.1 ng/mL | concentration at 1.833 h [1]: 44.3 ng/mL | concentration at 1.833 h [2]: 18.2 ng/mL | concentration at 1.833 h [4]: 14.7 ng/mL | concentration at 1.833 h [3]: 7.8 ng/mL | concentration at 2.167 h [1]: 31.7 ng/mL | concentration at 2.167 h [2]: 16.3 ng/mL | concentration at 2.167 h [4]: 14.5 ng/mL | concentration at 2.167 h [3]: 7.3 ng/mL | concentration at 2.5 h [1]: 26.6 ng/mL | concentration at 2.5 h [2]: 13.6 ng/mL | concentration at 2.5 h [4]: 10.2 ng/mL | concentration at 2.5 h [3]: 5.9 ng/mL | concentration at 3 h (2 tablets, after administering 2 tablets, 3 h p.a., read-out: Petasin serum concentration Max.): 18.3 ng/mL | concentration at 3 h (2 tablets, after administering 2 tablets, 3 h p.a., read-out: Petasin serum concentration Mean): 8.8 ng/mL | concentration at 3 h (2 tablets, after administering 2 tablets, 3 h p.a., read-out: Petasin serum concentration Median): 7.7 ng/mL | concentration at 3 h (2 tablets, after administering 2 tablets, 3 h p.a., read-out: Petasin serum concentration Min.): 3.1 ng/mL | concentration at 4 h [1]: 11.2 ng/mL | concentration at 4 h [2]: 4.5 ng/mL | concentration at 4 h [4]: 5.2 ng/mL | concentration at 4 h [3]: 1.7 ng/mL | concentration at 5 h [1]: 8.8 ng/mL | concentration at 5 h [2]: 4.1 ng/mL | concentration at 5 h [4]: 3.4 ng/mL | concentration at 5 h [3]: 1.5 ng/mL | concentration at 6 h [1]: 8.1 ng/mL | concentration at 6 h [2]: 3.2 ng/mL | concentration at 6 h [4]: 3.1 ng/mL | concentration at 6 h [3]: 1.2 ng/mL | concentration at 8 h [1]: 4.2 ng/mL | concentration at 8 h [2]: 1.9 ng/mL | concentration at 8 h [4]: 1.6 ng/mL | concentration at 8 h [3]: 1 ng/mL | concentration at 12 h [1]: 2.9 ng/mL | concentration at 12 h [2]: 1.6 ng/mL | concentration at 12 h [4]: 1.4 ng/mL | concentration at 12 h [3]: 1.1 ng/mL | concentration at 24 h [1]: 2.3 ng/mL | concentration at 24 h [2]: 1.5 ng/mL | concentration at 24 h [4]: 1.3 ng/mL | concentration at 24 h [3]: 1.1 ng/mL | concentration at 0 h (4 tablets, after administering 4 tablets, read-out: Petasin serum concentration Max.): 0 ng/mL | concentration at 0 h (4 tablets, after administering 4 tablets, read-out: Petasin serum concentration Median): < 1 ng/mL
SMILES: C=C(C)C1CC2(C)C(=CC1=O)CCC(OC(=O)/C(C)=C\C)C2C (centres unmarked) [petasin]
